Assay results: patent US8501770B2 (ArQule, Inc., priority 2009, dated 2013)
Structures can show the parent of a compound that is named as a salt. Where two headings read alike, the source gives them in different places.

Molecular target: Full-length inactive AKT1 (Homo sapiens, UniProt P31749)
Assay: Inactive Akt Alpha Screen Assay
Format: biochemical
Method in brief: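 AlphaScreen read-out (excitation 640 nm, emission 570 nm) after 90 min incubation at room temperature in the dark. Signal comes from crosstide phosphorylation by AKT1, which was activated by added PDK1, MAPKAPK2, ATP and lipid vesicles, captured via phospho-AKT substrate antibody and streptavidin beads.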

[1] = values not marked with "*", read-out: Akt1 IC50, (AlphaScreen)
[2] = AlphaScreen assay (values not marked with *), read-out: Akt1 IC50, (AlphaScreen) (μM) (or if marked with “*” HTRF assay)
[3] = values not marked with "*": AlphaScreen assay, read-out: Akt1 IC50, (AlphaScreen)

Chain of Full-length inactive AKT1 (P31749 whole entry): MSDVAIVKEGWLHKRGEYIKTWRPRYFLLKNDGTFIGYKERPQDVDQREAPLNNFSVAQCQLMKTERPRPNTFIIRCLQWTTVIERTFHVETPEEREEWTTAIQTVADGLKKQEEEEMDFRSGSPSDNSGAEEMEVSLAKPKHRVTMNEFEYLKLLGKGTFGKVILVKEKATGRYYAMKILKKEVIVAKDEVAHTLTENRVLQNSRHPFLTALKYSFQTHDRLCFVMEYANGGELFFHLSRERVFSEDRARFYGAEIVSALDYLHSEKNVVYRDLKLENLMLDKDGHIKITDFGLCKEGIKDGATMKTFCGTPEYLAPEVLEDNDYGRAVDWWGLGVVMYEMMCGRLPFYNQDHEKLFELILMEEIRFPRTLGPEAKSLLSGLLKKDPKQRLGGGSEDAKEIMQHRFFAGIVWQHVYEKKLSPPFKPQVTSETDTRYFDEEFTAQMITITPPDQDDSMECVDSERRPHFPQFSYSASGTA

IC50 [1]	SMILES	further results
0.182 µM	N#Cc1cccc(-c2ccc3nc(-c4cccnc4N)n(-c4ccc(CNC(=O)c5cccc(F)c5)cc4)c3n2)c1 [Example 335, N-(4-(2-(2-aminopyridin-3-yl)-5-(3-cyanophenyl)-3H-imidazo[4,5-b]pyridin-3-yl)benzyl)-3-fluorobenzamide]	
0.057 µM	CC(=O)Nc1cccc(-c2cnc3c(c2)nc(-c2cccnc2N)n3-c2ccc(C3(N)CCC3)cc2)c1 [Example 359, N-(3-(3-(4-(1-aminocyclobutyl)phenyl)-2-(2-aminopyridin-3-yl)-3H-imidazo[4,5-b]pyridin-6-yl)phenyl)acetamide]	
0.0039 µM	Nc1ncccc1-c1nc2ccc(-c3ccncc3)nc2n1-c1ccc(C2(N)CCC2)cc1 [Example 394, 3-(3-(4-(1-aminocyclobutyl)phenyl)-5-(pyridin-4-yl)-3H-imidazo[4,5-b]pyridin-2-yl)pyridin-2-amine]	
0.071 µM	Cc1cnc2c(c1)nc(-c1cccnc1N)n2-c1ccc(CNC(=O)c2ccccc2C(F)(F)F)cc1 [Example 281, N-(4-(2-(2-aminopyridin-3-yl)-6-methyl-3H-imidazo[4,5-b]pyridin-3-yl)benzyl)-2-(trifluoromethyl)benzamide]	
0.11 µM	Cc1ccnc2c1nc(-c1cccnc1N)n2-c1ccc(CNC(=O)c2cccc(F)c2)cc1 [Example 190, N-(4-(2-(2-aminopyridin-3-yl)-7-methyl-3H-imidazo[4,5-b]pyridin-3-yl)benzyl)-3-fluorobenzamide]	
	Nc1ncccc1-c1nc2ccc(-c3ccc4[nH]ccc4c3)nc2n1-c1ccc(C2(N)CCC2)cc1 [Example 452, 3-{3-[4-(1-aminocyclobutyl)phenyl]-5-(1H-indol-5-yl)-3H-imidazo[4,5-b]pyridin-2-yl}pyridin-2-amine]	IC50 [2]: 0.0041 µM
0.023 µM	Nc1ncccc1-c1nc2ccc(-c3cc[nH]c3)nc2n1-c1ccc(CNC(=O)c2cccc(F)c2)cc1 [Example 309, N-(4-(2-(2-aminopyridin-3-yl)-5-(1H-pyrrol-3-yl)-3H-imidazo[4,5-b]pyridin-3-yl)benzyl)-3-fluorobenzamide]	
0.0054 µM	COc1cc(F)cc(-c2ccc3nc(-c4cccnc4N)n(-c4ccc(C5(N)CCC5)cc4)c3n2)c1 [Example 420, 3-{3-[4-(1-aminocyclobutyl)phenyl]-5-(3-fluoro-5-methoxyphenyl)-3H-imidazo[4,5-b]pyridin-2-yl}pyridin-2-amine]	
1.4 µM	CC(C)(C)OC(=O)NC1(c2ccc(-n3c(-c4cccnc4N)nc4ccc(-c5ccccc5)nc43)cc2)CCC1 [Example 350, tert-butyl (1-(4-(2-(2-aminopyridin-3-yl)-5-phenyl-3H-imidazo[4,5-b]pyridin-3-yl)phenyl)cyclobutyl)carbamate]	
0.13 µM	Nc1ncccc1-c1nc2cc(Br)cnc2n1-c1ccc(CC(=O)Nc2cccc(F)c2)cc1 [Example 299, 2-(4-(2-(2-aminopyridin-3-yl)-6-bromo-3H-imidazo[4,5-b]pyridin-3-yl)phenyl)-N-(3-fluorophenyl)acetamide]	
0.11 µM	Cc1ccc2cc(C(=O)NCc3ccc(-n4c(-c5cccnc5N)nc5ccc(C)nc54)cc3)ccc2n1 [Example 263, N-(4-(2-(2-aminopyridin-3-yl)-5-methyl-3H-imidazo[4,5-b]pyridin-3-yl)benzyl)-2-methylquinoline-6-carboxamide]	
	Nc1ncccc1-c1nc2cc(Br)cnc2n1-c1ccc(CNS(=O)(=O)c2ccc(F)c(Cl)c2)cc1 [Example 150, N-{4-[2-(2-aminopyridin-3-yl)-6-bromo-3H-imidazo[4,5-b]pyridin-3-yl]benzyl}-3-chloro-4-fluorobenzenesulfonamide]	IC50 [3]: 2.3 µM
	CN(C)C1CCN(c2cccc(-c3ccc4nc(-c5cccnc5N)n(-c5ccc(C6(N)CCC6)cc5)c4n3)c2)CC1 [Example 460, 3-(3-[4-(1-aminocyclobutyl)phenyl]-5-{3-[4-(dimethylamino)piperidin-1-yl]phenyl}-3H-imidazo[4,5-b]pyridin-2-yl)pyridin-2-amine]	IC50 [2]: 0.011 µM
0.36 µM	COC(=O)C1(c2ccc(-n3c(-c4cccnc4N)nc4cc(-c5ccccc5)cnc43)cc2)CCC1 [Example 361, methyl 1-(4-(2-(2-aminopyridin-3-yl)-6-phenyl-3H-imidazo[4,5-b]pyridin-3-yl)phenyl)cyclobutanecarboxylate]	
	Nc1ncccc1-c1nc2cccnc2n1-c1ccc(CNC(=O)c2ccc(Br)cc2)cc1 [Example 40]	IC50 [3]: 0.089 µM
0.0032 µM	COc1cccc(-c2ccc3nc(-c4cccnc4N)n(-c4ccc(C5(N)CCC5)cc4)c3n2)c1 [Example 396, 3-(3-(4-(1-aminocyclobutyl)phenyl)-5-(3-methoxyphenyl)-3H-imidazo[4,5-b]pyridin-2-yl)pyridin-2-amine]	
0.12 µM	CS(=O)(=O)Nc1ccccc1-c1ccc2nc(-c3cccnc3N)n(-c3ccc(CNC(=O)c4cccc(F)c4)cc3)c2n1 [Example 313, N-(4-(2-(2-aminopyridin-3-yl)-5-(2-(methylsulfonamido)phenyl)-3H-imidazo[4,5-b]pyridin-3-yl)benzyl)-3-fluorobenzamide]	
0.74 µM	Cc1cnc2c(c1)nc(-c1cccnc1N)n2-c1ccc(CNC(=O)Cc2nnn[nH]2)cc1 [Example 286, N-(4-(2-(2-aminopyridin-3-yl)-6-methyl-3H-imidazo[4,5-b]pyridin-3-yl)benzyl)-2-(1H-tetrazol-5-yl)acetamide]	

IC50 [1]	SMILES	further results
0.004 µM	COCc1cccc(-c2ccc3nc(-c4cccnc4N)n(-c4ccc(C5(N)CCC5)cc4)c3n2)c1 [Example 412, 3-{3-[4-(1-aminocyclobutyl)phenyl]-5-[3-(methoxymethyl)phenyl]-3H-imidazo[4,5-b]pyridin-2-yl}pyridin-2-amine]	
0.0093 µM	Nc1ncccc1-c1nc2ccc(-c3ccc(O)cc3)nc2n1-c1ccc(C2(N)CCC2)cc1 [Example 424, 4-{3-[4-(1-aminocyclobutyl)phenyl]-2-(2-aminopyridin-3-yl)-3H-imidazo[4,5-b]pyridin-5-yl}phenol]	
0.49 µM	Nc1ncccc1-c1nc2cc(Br)cnc2n1-c1ccc(CNS(=O)(=O)c2ccc(F)cc2)cc1 [Example 158, N-{4-[2-(2-aminopyridin-3-yl)-6-bromo-3H-imidazo[4,5-b]pyridin-3-yl]benzyl}-4-fluorobenzenesulfonamide]	
0.14 µM	CC(C)c1ccc(C(=O)NCc2ccc(-n3c(-c4cccnc4N)nc4cc(-c5cccnc5)cnc43)cc2)cc1 [Example 233, N-(4-(2-(2-aminopyridin-3-yl)-6-(pyridin-3-yl)-3H-imidazo[4,5-b]pyridin-3-yl)benzyl)-4-isopropylbenzamide]	
0.35 µM	Nc1ncccc1-c1nc2cc(Br)cnc2n1-c1ccc(CNS(=O)(=O)c2ccccc2F)cc1 [Example 171, N-{4-[2-(2-aminopyridin-3-yl)-6-bromo-3H-imidazo[4,5-b]pyridin-3-yl]benzyl}-2-fluorobenzenesulfonamide]	
	Nc1ncccc1-c1nc2cccnc2n1-c1ccc(CNC(=O)c2ccccc2-n2cccc2)cc1 [Example 78]	IC50 [3]: 0.307 µM
0.063 µM	Cc1cnc2c(c1)nc(-c1cccnc1N)n2-c1ccc(CNC(=O)c2ccccc2Cl)cc1 [Example 218, N-(4-(2-(2-aminopyridin-3-yl)-6-methyl-3H-imidazo[4,5-b]pyridin-3-yl)benzyl)-2-chlorobenzamide]	
	COc1ccc(NC(=O)Cc2ccc(-n3c(-c4cccnc4N)nc4cccnc43)cc2)cc1F [Example 128]	IC50 [3]: 0.216 µM
0.0095 µM	CC(=O)Nc1cccc(-c2ccc3nc(-c4cccnc4N)n(-c4ccc(CNC(=O)c5ccc(C)c(F)c5)cc4)c3n2)c1 [Example 293, N-(4-(5-(3-acetamidophenyl)-2-(2-aminopyridin-3-yl)-3H-imidazo[4,5-b]pyridin-3-yl)benzyl)-3-fluoro-4-methylbenzamide]	
0.23 µM	Cc1cnc2c(c1)nc(-c1cccnc1N)n2-c1ccc(CNC(=O)c2ccc(Cl)c(Cl)c2)cc1 [Example 266, N-(4-(2-(2-aminopyridin-3-yl)-6-methyl-3H-imidazo[4,5-b]pyridin-3-yl)benzyl)-3,4-dichlorobenzamide]	
2.1 µM	N#Cc1ccc(S(=O)(=O)NCc2ccc(-n3c(-c4cccnc4N)nc4cc(Br)cnc43)cc2)cc1 [Example 165, N-{4-[2-(2-aminopyridin-3-yl)-6-bromo-3H-imidazo[4,5-b]pyridin-3-yl]benzyl}-4-cyanobenzenesulfonamide]	
0.061 µM	Nc1ncccc1-c1nc2ccc(Cl)nc2n1-c1ccc(CNC(=O)c2ccccc2)cc1 [Example 198, N-(4-(2-(2-aminopyridin-3-yl)-5-chloro-3H-imidazo[4,5-b]pyridin-3-yl)benzyl)benzamide]	
0.091 µM	Nc1ccccc1-c1ccc2nc(-c3cccnc3N)n(-c3ccc(CNC(=O)c4cccc(F)c4)cc3)c2n1 [Example 327, N-(4-(5-(2-aminophenyl)-2-(2-aminopyridin-3-yl)-3H-imidazo[4,5-b]pyridin-3-yl)benzyl)-3-fluorobenzamide]	
0.47 µM	Cc1cnc2c(c1)nc(-c1cccnc1N)n2-c1ccc(CNC(=O)OC(C)(C)C)cc1 [Example 227, tert-butyl 4-(2-(2-aminopyridin-3-yl)-6-methyl-3H-imidazo[4,5-b]pyridin-3-yl)benzylcarbamate]	
0.03 µM	Cc1cnc2c(c1)nc(-c1cccnc1N)n2-c1ccc(CNC(=O)c2ccccc2C)cc1 [Example 223, N-(4-(2-(2-aminopyridin-3-yl)-6-methyl-3H-imidazo[4,5-b]pyridin-3-yl)benzyl)-2-methylbenzamide]	
	Cc1ccc2nc(NC(=O)Cc3ccc(-n4c(-c5cccnc5N)nc5cccnc54)cc3)sc2c1 [Example 121, hydrochloride]	IC50 [3]: 0.16 µM
	Nc1ccccc1-c1cnc2c(c1)nc(-c1cccnc1N)n2-c1ccc(CNC(=O)c2ccccc2)cc1 [Example 134, N-{4-[6-(2-aminophenyl)-2-(2-aminopyridin-3-yl)-3H-imidazo[4,5-b]pyridin-3-yl]benzyl}benzamide]	IC50 [3]: 1.6 µM
